ChEMBL document CHEMBL1201862, “PubChem BioAssay data set” (2004)
Values joined by “and” are separate entries in the source; they are usually repeats but may differ in a detail not shown here. Equal values may be shown once. Active and inactive are the calls of the source.

Columns and labels:
Genome polyprotein = Genome polyprotein (dengue virus type 2, UniProt P29990); assay: Dengue-2 NS5 methyltransferase inhibitors, primary screen, biochemical, confirmation dose response (AID 588689); format: functional
[1] = biological target: Glyceraldehyde-3-phosphate dehydrogenase (Homo sapiens, UniProt P04406)
Bcl-2-related protein A1 [2] = biological target: T1, Bcl-2-related protein A1 (Mus musculus, UniProt Q07440); assay: Bfl-1 binding inhibitors, SAR follow-up, biochemical, fluorescence polarization (AID 1070)
T1 sequence (Q07440 whole entry): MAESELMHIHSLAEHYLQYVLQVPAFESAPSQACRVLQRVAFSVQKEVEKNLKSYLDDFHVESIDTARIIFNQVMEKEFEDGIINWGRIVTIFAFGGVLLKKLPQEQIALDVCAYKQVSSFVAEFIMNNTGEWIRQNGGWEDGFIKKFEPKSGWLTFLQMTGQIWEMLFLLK

Bcl-2-related protein A1 [3] = biological target: T1, Bcl-2-related protein A1; assay: Bfl-1 inhibitors blocking BH3 peptide binding, confirmation, biochemical, TR-FRET, mouse Bfl-1 (AID 621);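 note: TR-FRET binding of GST-Bfl-1 to FITC-labelled Bid peptide via terbium antibody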
Protein RecA = biological target: T2, Protein RecA (Mycobacterium tuberculosis, UniProt P9WHJ3); assay: Fluorescence Cell-Free Homogeneous Dose Retest to Identify Inhibitors of RecA-Intein Splicing Activity. [Related pubchem assays (depositor defined):AID2097, AID2223, AID489010, AID492950]; format: functional
T2 sequence (P9WHJ3 whole entry): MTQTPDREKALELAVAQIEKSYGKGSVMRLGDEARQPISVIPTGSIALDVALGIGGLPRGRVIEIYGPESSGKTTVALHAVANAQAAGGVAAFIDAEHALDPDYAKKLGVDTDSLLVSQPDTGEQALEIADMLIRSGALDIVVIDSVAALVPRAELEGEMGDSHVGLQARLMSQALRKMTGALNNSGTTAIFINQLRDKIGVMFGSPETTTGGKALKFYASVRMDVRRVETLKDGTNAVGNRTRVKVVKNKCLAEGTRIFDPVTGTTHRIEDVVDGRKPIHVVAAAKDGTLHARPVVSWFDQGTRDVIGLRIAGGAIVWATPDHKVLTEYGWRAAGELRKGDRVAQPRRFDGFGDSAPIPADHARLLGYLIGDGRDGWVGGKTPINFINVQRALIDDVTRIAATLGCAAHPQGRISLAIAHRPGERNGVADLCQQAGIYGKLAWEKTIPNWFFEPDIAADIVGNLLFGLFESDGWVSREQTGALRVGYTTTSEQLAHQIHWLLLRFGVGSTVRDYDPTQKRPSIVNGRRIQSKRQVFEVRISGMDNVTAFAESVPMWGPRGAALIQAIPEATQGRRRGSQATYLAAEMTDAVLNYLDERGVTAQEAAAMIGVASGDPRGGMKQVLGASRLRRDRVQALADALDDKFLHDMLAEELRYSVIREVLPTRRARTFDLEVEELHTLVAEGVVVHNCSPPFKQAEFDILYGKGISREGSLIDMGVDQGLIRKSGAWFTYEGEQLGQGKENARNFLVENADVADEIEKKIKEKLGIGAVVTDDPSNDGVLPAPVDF

Bcl-2-related protein A1 [4] = biological target: T1, Bcl-2-related protein A1; assay: Bfl-1 inhibitors, primary screen, biochemical, fluorescence polarization, FITC-Bid, mouse (AID 432)
[5] = biological target: T3, Replicative DNA helicase DnaB (Mycobacterium tuberculosis, UniProt P9WMR3); assay: DnaB intein splicing inhibitors, dose response, biochemical, cell-free fluorescence (AID 449749); format: functional
T3 sequence (P9WMR3 whole entry): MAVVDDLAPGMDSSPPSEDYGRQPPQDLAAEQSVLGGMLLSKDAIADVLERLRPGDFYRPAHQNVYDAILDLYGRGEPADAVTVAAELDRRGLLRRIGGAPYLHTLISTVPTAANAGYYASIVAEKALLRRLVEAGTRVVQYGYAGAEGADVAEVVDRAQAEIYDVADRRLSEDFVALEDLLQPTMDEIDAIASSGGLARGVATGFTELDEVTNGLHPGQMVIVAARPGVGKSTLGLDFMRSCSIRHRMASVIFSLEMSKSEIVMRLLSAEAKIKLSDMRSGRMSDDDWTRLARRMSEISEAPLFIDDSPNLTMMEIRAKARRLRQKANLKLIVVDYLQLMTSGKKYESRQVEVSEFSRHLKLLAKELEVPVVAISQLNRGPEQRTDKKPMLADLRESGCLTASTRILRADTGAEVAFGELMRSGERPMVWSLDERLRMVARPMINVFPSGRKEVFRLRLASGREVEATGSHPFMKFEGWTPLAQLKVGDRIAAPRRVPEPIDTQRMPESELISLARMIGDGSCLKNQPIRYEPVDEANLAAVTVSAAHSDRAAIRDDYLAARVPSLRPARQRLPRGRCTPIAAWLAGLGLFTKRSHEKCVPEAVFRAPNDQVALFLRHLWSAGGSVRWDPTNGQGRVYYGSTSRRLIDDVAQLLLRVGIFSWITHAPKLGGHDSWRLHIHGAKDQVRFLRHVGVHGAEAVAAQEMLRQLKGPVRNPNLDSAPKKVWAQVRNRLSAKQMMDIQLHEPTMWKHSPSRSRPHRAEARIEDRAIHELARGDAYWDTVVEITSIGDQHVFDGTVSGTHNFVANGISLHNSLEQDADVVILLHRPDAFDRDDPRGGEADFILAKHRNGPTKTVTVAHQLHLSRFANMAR

[6] = biological target: Sphingosine 1-phosphate receptor 2 (Homo sapiens, UniProt O95136); assay: Dose Response Cell Based Assay for Antagonists of the S1P2 Receptor. [Related pubchem assays: 856, 736 ]; format: functional
[7] = biological target: 5-hydroxytryptamine receptor 1A (Homo sapiens, UniProt P08908); format: functional
[8] = biological target: Diphosphomevalonate decarboxylase (Streptococcus pneumoniae serotype 2 (strain D39 / NCTC 7466), UniProt Q9FD53); assay: S. pneumoniae DPM-DC inhibition retest, confirmation, biochemical, cuvette format, coupled NADH fluorescence (AID 1028); format: functional
Vero = assay: cytotoxicity of synthesized analogs in Vero cells, SAR follow-up, cytotoxicity control for West Nile virus antiviral project, cell-based, set II (AID 2402); format: functional; conditions: Chlorocebus sabaeus

Sequence of Diphosphomevalonate decarboxylase (Q9FD53 whole entry): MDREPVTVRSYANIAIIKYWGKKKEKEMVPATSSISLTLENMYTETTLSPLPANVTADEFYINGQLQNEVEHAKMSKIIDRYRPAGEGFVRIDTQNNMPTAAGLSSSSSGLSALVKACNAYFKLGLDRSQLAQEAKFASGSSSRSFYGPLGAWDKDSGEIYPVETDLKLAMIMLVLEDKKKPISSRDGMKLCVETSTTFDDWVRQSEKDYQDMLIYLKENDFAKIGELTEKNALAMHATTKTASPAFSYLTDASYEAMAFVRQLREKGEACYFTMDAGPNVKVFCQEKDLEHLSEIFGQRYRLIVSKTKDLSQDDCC
Sequence of 5-hydroxytryptamine receptor 1A (P08908 whole entry): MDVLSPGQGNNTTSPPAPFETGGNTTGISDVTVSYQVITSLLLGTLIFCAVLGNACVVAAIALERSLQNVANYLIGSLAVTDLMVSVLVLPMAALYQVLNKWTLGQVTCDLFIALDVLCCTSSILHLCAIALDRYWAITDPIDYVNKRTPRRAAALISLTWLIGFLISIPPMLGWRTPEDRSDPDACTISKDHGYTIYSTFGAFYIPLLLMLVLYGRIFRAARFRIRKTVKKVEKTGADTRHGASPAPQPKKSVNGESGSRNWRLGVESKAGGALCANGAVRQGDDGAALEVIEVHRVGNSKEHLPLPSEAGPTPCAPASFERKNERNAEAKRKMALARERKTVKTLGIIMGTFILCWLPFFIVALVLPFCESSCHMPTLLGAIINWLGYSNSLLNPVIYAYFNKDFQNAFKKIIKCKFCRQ
Sequence of Genome polyprotein (P29990 2492-3391 limits assumed): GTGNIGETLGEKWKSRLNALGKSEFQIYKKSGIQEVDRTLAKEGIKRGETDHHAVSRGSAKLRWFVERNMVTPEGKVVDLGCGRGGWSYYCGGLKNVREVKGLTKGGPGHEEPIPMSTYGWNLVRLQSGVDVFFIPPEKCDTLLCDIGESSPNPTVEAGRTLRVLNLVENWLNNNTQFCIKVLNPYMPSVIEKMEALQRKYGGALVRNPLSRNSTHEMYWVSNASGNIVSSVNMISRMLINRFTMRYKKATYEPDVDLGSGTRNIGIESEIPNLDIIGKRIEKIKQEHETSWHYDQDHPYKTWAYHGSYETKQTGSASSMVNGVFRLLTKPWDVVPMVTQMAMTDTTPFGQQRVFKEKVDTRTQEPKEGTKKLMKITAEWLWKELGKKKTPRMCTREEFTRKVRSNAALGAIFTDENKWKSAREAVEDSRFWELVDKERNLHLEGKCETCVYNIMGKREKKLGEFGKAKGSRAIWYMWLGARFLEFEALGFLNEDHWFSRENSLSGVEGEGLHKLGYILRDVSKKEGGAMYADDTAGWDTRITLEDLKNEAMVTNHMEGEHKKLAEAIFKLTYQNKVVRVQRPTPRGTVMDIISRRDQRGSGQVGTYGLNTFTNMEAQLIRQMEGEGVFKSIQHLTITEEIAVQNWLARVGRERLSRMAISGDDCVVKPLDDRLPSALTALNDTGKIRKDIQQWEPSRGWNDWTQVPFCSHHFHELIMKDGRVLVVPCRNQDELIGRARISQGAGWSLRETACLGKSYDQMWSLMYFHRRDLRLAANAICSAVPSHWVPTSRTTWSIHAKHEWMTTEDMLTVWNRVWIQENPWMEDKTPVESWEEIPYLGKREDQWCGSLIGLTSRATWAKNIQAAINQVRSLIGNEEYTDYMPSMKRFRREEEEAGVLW
Sequence of Glyceraldehyde-3-phosphate dehydrogenase (P04406 whole entry): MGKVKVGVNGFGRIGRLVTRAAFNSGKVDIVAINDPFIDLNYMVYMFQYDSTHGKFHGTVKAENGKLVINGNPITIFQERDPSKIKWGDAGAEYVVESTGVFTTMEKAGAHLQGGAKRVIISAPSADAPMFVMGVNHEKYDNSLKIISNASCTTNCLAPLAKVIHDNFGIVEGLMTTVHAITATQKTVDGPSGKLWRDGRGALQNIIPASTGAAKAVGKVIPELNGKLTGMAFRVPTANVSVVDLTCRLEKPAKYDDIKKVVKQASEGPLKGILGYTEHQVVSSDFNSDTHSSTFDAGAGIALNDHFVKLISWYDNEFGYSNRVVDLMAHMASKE
Sequence of Sphingosine 1-phosphate receptor 2 (O95136 whole entry): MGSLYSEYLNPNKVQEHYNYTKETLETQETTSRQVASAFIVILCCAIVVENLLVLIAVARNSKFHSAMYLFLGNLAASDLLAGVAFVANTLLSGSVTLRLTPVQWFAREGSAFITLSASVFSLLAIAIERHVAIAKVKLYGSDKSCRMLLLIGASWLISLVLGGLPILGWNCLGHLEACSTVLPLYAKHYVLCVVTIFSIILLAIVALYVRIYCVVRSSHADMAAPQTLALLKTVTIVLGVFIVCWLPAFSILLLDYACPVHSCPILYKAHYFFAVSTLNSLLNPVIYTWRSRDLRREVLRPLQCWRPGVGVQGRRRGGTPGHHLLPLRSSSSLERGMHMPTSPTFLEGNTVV

**Q.** Which results are given for `CN1CCN(C2=C(Cl)C(=O)N(c3ccc(Cl)c(Cl)c3)C2=O)CC1`?
**A.** IC50 (Genome polyprotein): 16.9 µM (active); IC50 [1]: > 100 µM (not active); IC50 (Bcl-2-related protein A1 [2]): 0.362 µM (active); IC50 (Bcl-2-related protein A1 [3]): 580 nM (active) and 500 nM (active); EC50 (Protein RecA): 2.22 µM (active); IC50 (Bcl-2-related protein A1 [4]): 0.65 µM (active); AC50 [5]: 3.75 µM (active)

**Q.** For `CN(C)/C=N/C(=O)c1sc2cc(C(F)(F)F)cnc2c1-c1ccccc1`, which IC50 [6] is on record?
**A.** Its IC50 is > 30 µM (not active).

**Q.** How did the EC50 [7] turn out when `CCN1CC=C(c2c[nH]c3ccccc23)CC1` was run?
**A.** Its EC50 is > 50 µM (not active).

**Q.** How did the IC50 [8] turn out when `O=C(c1cccc(-n2sc3ccccc3c2=O)c1)N1CCOCC1` was run?
**A.** The IC50 was 23.1 µM (active).

**Q.** How did the CC50 (Vero) turn out when `O=C(CSc1nc2ccc(F)cc2c(=O)n1-c1ccccc1)Nc1ccc2c(c1)CCC2` was run?
**A.** The CC50 was > 200 µM (active).
